Experimental data published in EP4295688A1, “ACTIVE COMPOUND COMBINATION” (Bayer Aktiengesellschaft, priority 2022, dated 2023).
Like-named read-outs stand apart in the source and are kept apart here.

Assay: Measurement of LogP values by HPLC on reversed phase columns (EEC directive 79/831 Annex V.A8)
Format: physicochemical
Conditions: for chromatographic logP: reversed-phase HPLC column (Agilent Zorbax Eclipse C18)
Experimental: Measurement of LogP values was performed according to EEC directive 79/831 Annex V.A8 by HPLC (High Performance Liquid Chromatography) on reversed phase columns (Agilent Zorbax Eclipse C18) with the following methods: • ^[a] LogP value is determined by measurement of LC-UV and/or MS and/or ELS, in an acidic range, with 0.1% formic acid in water and acetonitrile as eluent (linear gradient from 10% acetonitrile to 95% acetonitrile). • ^[b] LogP value is determined by measurement of LC-UV and/or MS and/or ELS, in a neutral range, with 0.001 molar ammonium acetate solution in water and acetonitrile as eluent (linear gradient from 10% acetonitrile to 95% acetonitrile). If more than one LogP value is available within the same method, all the values are given and separated by "+". Calibration was done with straight-chain alkan2-ones (with 3 to 16 carbon atoms) with known LogP values (measurement of LogP values using retention times with linear interpolation between successive alkanones). Lambda-max-values were determined using UV-spectra from 200 nm to 400 nm and the peak values of the chromatographic signals.

[1] = [Method A] as printed in the preparation examples (taken as method [a], acidic range)
[2] = method [a]: acidic range, 0.1% formic acid in water and acetonitrile as eluent (linear gradient 10% to 95% acetonitrile)

| chromatographic logP [1] | chromatographic logP [2] | SMILES | also measured |
| --- | --- | --- | --- |
| 3.31 | 3.81 | C#Cc1ccn(Cc2ccc(-c3noc(C(F)(F)Cl)n3)cc2)n1 [1.03, 5-[chloro(difluoro)methyl]-3-{4-[(3-ethynyl-1H-pyrazol-1-yl)methyl]phenyl}-1,2,4-oxadiazole] | – |
| 2.92 | 2.92 | CONC(=O)N(Cc1ccc(-c2noc(C(F)(F)Cl)n2)cc1)OC [1.04, 1-(4-{5-[Chloro(difluoro)methyl]-1,2,4-oxadiazol-3-yl}benzyl)-1,3-dimethoxyurea] | – |
| 3.31 | 3.31 | COC(C)C(=O)N(Cc1ccc(-c2noc(C(F)(F)Cl)n2)cc1)OC (stereo not shown) [1.05, N-(4-{5-[chloro(difluoro)methyl]-1,2,4-oxadiazol-3-yl}benzyl)-N,2-dimethoxypropan-amide] | – |
| – | 3.81 | CCOC(=O)c1cnn(Cc2ccc(-c3noc(C(F)(F)Cl)n3)s2)c1 [1.02, ethyl 1-[(5-{5-[chloro(difluoro)methyl]-1,2,4-oxadiazol-3-yl}-2-thienyl)methyl]-1H-pyrazole-4-carboxylate] | – |

Second part, the compound before the results:

| SMILES | chromatographic logP [1] | chromatographic logP [2] | also measured |
| --- | --- | --- | --- |
| CONCc1ccc(-c2noc(C(F)(F)Cl)n2)cc1 [V-a, 1-[4-[5-[Chloro(difluoro)methyl]-1.2.4-oxadiazol-3-yl]phenyl]-N-methoxy-methanamine] | 3.09 | 3.09 | – |
| CCOC(=O)c1cnn(Cc2ccc(-c3noc(C(F)(F)Cl)n3)cc2F)c1 [I.01] | – | – | LogP [1]: 3.98 |
| OCc1ccc(-c2noc(C(F)(F)Cl)n2)cc1F [VIII"-a, (4-{5-[chloro(difluoro)methyl]-1,2,4-oxadiazol-3-yl}-2-fluorophenyl)methanol] | 2.98 | 2.98 | – |
| Cc1ccc(-c2noc(C(F)(F)Cl)n2)cc1 [X-b, 3-(4-Methylphenyl)-5-(chlorodifluoromethyl)-1,2,4-oxadiazole] | 4.55 | 4.55 | – |
| FC(F)(Cl)c1nc(-c2ccc(CBr)cc2)no1 [VIII'-c, 3-[4-(Bromomethyl)phenyl]-5-(chlorodifluoromethyl)-1,2,4-oxadiazole] | 4.48 | 4.48 | – |
| CCOC(=O)c1cnn(Cc2ccc(-c3noc(C(F)(F)Cl)n3)s2)c1 [I.02] | – | – | LogP [1]: 3.81 |
| FC(F)(Cl)c1nc(-c2ccc(CBr)s2)no1 [VIII'-b, 3-[5-(bromomethyl)-2-thienyl]-5-[chloro(difluoro)methyl]-1,2,4-oxadiazole] | 4.2 | 4.2 | – |
| Cc1ccc(C(N)=NO)s1 [N'-hydroxy-5-methylthiophene-2-carboximidamide] | – | – | chromatographic logP ([Method B] as printed in the preparation examples (taken as method [b], neutral range, 0.001 molar ammonium acetate)): 1.17 |
| Fc1cc(-c2noc(C(F)(F)Cl)n2)ccc1CBr [VIII'-a, 3-[4-(bromomethyl)-3-fluorophenyl]-5-[chloro(difluoro)methyl]-1,2,4-oxadiazole] | 4.66 | 4.66 | – |
| Cc1ccc(-c2noc(C(F)(F)Cl)n2)s1 [X-a, 5-[chloro(difluoro)methyl]-3-(5-methyl-2-thienyl)-1,2,4-oxadiazole] | 4.18 | 4.18 | – |
| CCOC(=O)c1cnn(Cc2ccc(-c3noc(C(F)(F)Cl)n3)cc2F)c1 [1.01, ethyl 1-(4-{5-[chloro(difluoro)methyl]-1,2,4-oxadiazol-3-yl}-2-fluorobenzyl)-1H-pyrazole-4-carboxytate] | – | – | LogP: 3.98^[a] |
